# Laboratory results reported in patent publication US6974804B2, “Esters” (Unilever Home & Personal Care USA, division of Conopco, Inc., priority 2000, dated 2005).
# Experiment: Gelling of water-immiscible cosmetic liquids in 96 well glass micro-titre plate
# Type: physicochemical
# Set-up: key: gel; g4: gel after overnight (18 hrs) storage at 4° C.; g22: gel after overnight (18 hrs) storage at 22° C.; sg: soft gel; sg22: soft gel after overnight (18 hrs) storage at 22° C.; solution; *: the test at 4° C. was not carried out
# Details: for gelling of ISA: 150° C. 2.5 hours, cooled to ambient
# Protocol: In this Example, various samples of esterified cellobiose prepared as in Example 1 or 2 above, were used to gel water-immiscible cosmetic liquids, in accordance with the procedure given below, in which a large number of gels can be prepared simultaneously.
# The samples were tested in a 96 well (8×12 rows) glass micro-titre plate. […] About 0.01 or 0.02 g of each esterified cellobiose material was placed into 8 consecutive wells in a single row, so that each well contained approximately 5% or 10% of the cellobiose ester. The balance in each well comprised the cosmetic liquid by addition of approximately 0.2 g of the respective liquid to each cell. A glass lid was placed on top of the plate. The plate was carefully placed in a thermostatically controlled fan-assisted oven set at 150° C. for 2.5 hours. The plate was removed from the oven and allowed to cool naturally to ambient laboratory temperature. The contents of the wells were assessed at the end of the cooling period, by visual inspection and by poking the contents of each well with a micro-spatula. The plates were stored at […] for 18 hours and the contents inspected, and further stored for 18 hours at 4° C. and inspected for a third time. The results obtained in the tests are summarised in Table 5 below, in which the legend is as follows: […]
# [1] = 5% cellobiose ester in Fluid AP
# [2] = 5% cellobiose ester in Mineral oil
# [3] = 5% cellobiose ester in Polydecene
# [4] = 10% cellobiose ester in Fluid AP
# [5] = 10% cellobiose ester in Mineral oil
# [6] = 10% cellobiose ester in Polydecene
SMILES,gelling of DC556 (5% cellobiose ester in DC556),gelling of Fluid AP [1],gelling of IPM (5% cellobiose ester in IPM),gelling of ISA (5% cellobiose ester in ISA),gelling of Mineral oil [2],gelling of Polydecene [3],gelling of DC556 (10% cellobiose ester in DC556),gelling of Fluid AP [4],gelling of IPM (10% cellobiose ester in IPM),gelling of ISA (10% cellobiose ester in ISA),gelling of Mineral oil [5],gelling of Polydecene [6]
CCCCCCCCC(=O)OCC1OC(OC2C(COC(=O)CCCCCCCC)OC(OC(=O)C3CCCCC3)C(OC(=O)CCCCCCCC)C2OC(=O)CCCCCCCC)C(OC(=O)CCCCCCCC)C(OC(=O)CCCCCCCC)C1OC(=O)CCCCCCCC (mixture of isomers) [Ex 1.11],g22,gel,sol,g22,g22,gel,gel,gel,sol,g22,g22,gel
CCCCCCCCC(=O)OCC1OC(OC2C(COC(=O)CCCCCCCC)OC(OC(=O)c3ccc(-c4ccccc4)cc3)C(OC(=O)CCCCCCCC)C2OC(=O)CCCCCCCC)C(OC(=O)CCCCCCCC)C(OC(=O)CCCCCCCC)C1OC(=O)CCCCCCCC (mixture of isomers) [Ex 1.15],gel,gel,–,gel,gel,gel,gel,gel,–,gel,gel,gel
CCCCCCCCC(=O)OCC1OC(OC2C(COC(=O)CCCCCCCC)OC(OC(=O)CC)C(OC(=O)CCCCCCCC)C2OC(=O)CCCCCCCC)C(OC(=O)CCCCCCCC)C(OC(=O)CCCCCCCC)C1OC(=O)CCCCCCCC (mixture of isomers) [Ex 1.16],gel,gel,–,gel,gel,gel,gel,gel,–,gel,gel,gel
CCCCCCCCC(=O)OCC1OC(OC2C(COC(=O)CCCCCCCC)OC(OC(=O)CCC)C(OC(=O)CCCCCCCC)C2OC(=O)CCCCCCCC)C(OC(=O)CCCCCCCC)C(OC(=O)CCCCCCCC)C1OC(=O)CCCCCCCC (mixture of isomers) [Ex 1.18],gel,gel,–,sg22,g22,gel,gel,gel,–,gel,gel,gel
CCCCCCCCC(=O)OCC1OC(OC2C(COC(=O)CCCCCCCC)OC(OC(=O)CCCC)C(OC(=O)CCCCCCCC)C2OC(=O)CCCCCCCC)C(OC(=O)CCCCCCCC)C(OC(=O)CCCCCCCC)C1OC(=O)CCCCCCCC (mixture of isomers) [Ex 1.20],g22,g22,–,sg22,g22,gel,g22,gel,–,g22,g22,gel
CCCCCCCCC(=O)OCC1OC(OC2C(COC(=O)CCCCCCCC)OC(OC(=O)CCCCC)C(OC(=O)CCCCCCCC)C2OC(=O)CCCCCCCC)C(OC(=O)CCCCCCCC)C(OC(=O)CCCCCCCC)C1OC(=O)CCCCCCCC (mixture of isomers) [Ex 1.21],g22,gel,–,sg22,g22,gel,gel,gel,–,g22,g22,gel
CCCCCCCCC(=O)OCC1OC(OC2C(COC(=O)CCCCCCCC)OC(OC(=O)CCCCCC)C(OC(=O)CCCCCCCC)C2OC(=O)CCCCCCCC)C(OC(=O)CCCCCCCC)C(OC(=O)CCCCCCCC)C1OC(=O)CCCCCCCC (mixture of isomers) [Ex 1.22],g22,gel,–,sg22,sol,gel,g22,gel,–,g22,g22,gel
CCCCCCCCCCCC(=O)OC1OC(COC(=O)CCCCCCCC)C(OC2OC(COC(=O)CCCCCCCC)C(OC(=O)CCCCCCCC)C(OC(=O)CCCCCCCC)C2OC(=O)CCCCCCCC)C(OC(=O)CCCCCCCC)C1OC(=O)CCCCCCCC (mixture of isomers) [Ex 1.23],gel,sg,–,g22,g22,gel,gel,gel,–,g22,g22,gel
CCCCCCCCCCCCCC(=O)OC1OC(COC(=O)CCCCCCCC)C(OC2OC(COC(=O)CCCCCCCC)C(OC(=O)CCCCCCCC)C(OC(=O)CCCCCCCC)C2OC(=O)CCCCCCCC)C(OC(=O)CCCCCCCC)C1OC(=O)CCCCCCCC (mixture of isomers) [Ex 1.24],gel,gel,–,g22,g22,gel,gel,gel,–,gel,g22,gel
CCCCCCCCCC(=O)OCC1OC(OC2C(COC(=O)CCCCCCCCC)OC(OC(=O)c3ccccc3)C(OC(=O)CCCCCCCCC)C2OC(=O)CCCCCCCCC)C(OC(=O)CCCCCCCCC)C(OC(=O)CCCCCCCCC)C1OC(=O)CCCCCCCCC (mixture of isomers) [Ex 2.2],gel,gel,–,gel,gel,gel,gel,gel,–,gel,gel,gel
CCCCCCCCCC(=O)OCC1OC(OC2C(COC(=O)CCCCCCCCC)OC(OC(C)=O)C(OC(=O)CCCCCCCCC)C2OC(=O)CCCCCCCCC)C(OC(=O)CCCCCCCCC)C(OC(=O)CCCCCCCCC)C1OC(=O)CCCCCCCCC (mixture of isomers) [Ex 2.3],gel,gel,–,gel,gel,gel,gel,gel,–,gel,gel,gel
CCCCCCCCCC(=O)OCC1OC(OC2C(COC(=O)CCCCCCCCC)OC(OC(C)=O)C(OC(=O)CCCCCCCCC)C2OC(=O)CCCCCCCCC)C(OC(=O)CCCCCCCCC)C(OC(=O)CCCCCCCCC)C1OC(=O)CCCCCCCCC (mixture of isomers) [Ex 2.4],gel,gel,–,gel,gel,gel,–,–,–,–,–,–
CCCCCCCCCC(=O)OCC1OC(OC2C(COC(=O)CCCCCCCCC)OC(OC(C)=O)C(OC(=O)CCCCCCCCC)C2OC(=O)CCCCCCCCC)C(OC(=O)CCCCCCCCC)C(OC(=O)CCCCCCCCC)C1OC(=O)CCCCCCCCC (mixture of isomers) [Ex 2.5],gel,gel,–,gel,gel,gel,–,–,–,–,–,–
CCCCCCCCCC(=O)OCC1OC(OC2C(COC(=O)CCCCCCCCC)OC(OC(=O)CCCCC)C(OC(=O)CCCCCCCCC)C2OC(=O)CCCCCCCCC)C(OC(=O)CCCCCCCCC)C(OC(=O)CCCCCCCCC)C1OC(=O)CCCCCCCCC (mixture of isomers) [Ex 2.11],gel,gel,–,gel,gel,gel,gel,gel,–,gel,gel,gel
CCCCCCCCCCCCCCCC(=O)OC1OC(COC(=O)CCCCCCCCC)C(OC2OC(COC(=O)CCCCCCCCC)C(OC(=O)CCCCCCCCC)C(OC(=O)CCCCCCCCC)C2OC(=O)CCCCCCCCC)C(OC(=O)CCCCCCCCC)C1OC(=O)CCCCCCCCC (mixture of isomers) [Ex 2.12],gel,gel,–,g22,gel,gel,gel,gel,–,gel,gel,gel
